According to ChEMBL document CHEMBL1177664, “Development of tryptase inhibitors derived from thalidomide” (Bioorg Med Chem, 2010):
Active and inactive are the calls of the source. No cut-off for these calls is given here.

Legend:
Homo sapiens [1] = species on record: Homo sapiens; assay: Inhibition of human tryptase-beta at 30 uM after 5 mins by fluorimetric analysis
[2] = (§1) Inhibition of human tryptase-beta after 5 mins by fluorimetric analysis
[3] = Binding affinity to human tryptase-beta after 3 mins
Prothrombin = Prothrombin (Bos taurus, UniProt P00735); assay: Binding affinity to bovine thrombin after 3 mins
[4] = Binding affinity to bovine type 1 trypsin after 3 mins; set-up: species or system Bos taurus
Homo sapiens [5] = species on record: Homo sapiens; assay: Competitive inhibition of human tryptase-beta by Lineweaver-Burke plot analysis
Homo sapiens [6] = species on record: Homo sapiens; assay: as §1

SMILES | inhibition (Homo sapiens [1]) | IC50 [2] [nM] | also measured
CN1C(=O)c2ccc(OC(=O)c3ccccc3N)cc2C1=O | inactive | 1500 | –
CN1C(=O)c2ccc(OC(=O)c3cccc(N)c3)cc2C1=O | inactive | – | –
COc1cccc(N2C(=O)c3ccc(OC(=O)CCc4ccc(N)cc4)cc3C2=O)c1 | – | 650 | –
Nc1ccc(CCC(=O)Oc2ccc3c(c2)C(=O)N(C2CCCCC2)C3=O)cc1 | – | 1200 | –
CC(C)N1C(=O)c2ccc(OC(=O)CCc3ccc(N)cc3)cc2C1=O | – | 1200 | –
CN1C(=O)c2ccc(OC(=O)CCc3cnc(N)nc3)cc2C1=O | – | 7800 | –
CC(C)(C)c1ccc(N2C(=O)c3ccc(OC(=O)CCc4ccc(N)cc4)cc3C2=O)cc1 | inactive | – | –
Cc1ccc(N2C(=O)c3ccc(OC(=O)CCc4ccc(N)cc4)cc3C2=O)cc1 | – | 1200 | –
CN1C(=O)c2ccc(OC(=O)CCc3ccc(N)nc3)cc2C1=O | – | 400 | Ki [3]: 340 nM; Ki (Prothrombin): 7000 nM; Ki [4]: 2900 nM; inhibition (Homo sapiens [5]): Active
Nc1ccc(CCC(=O)Oc2ccc3c(c2)C(=O)N(c2ccc(C(F)(F)F)cc2)C3=O)cc1 | inactive | – | –
CN1C(=O)c2ccc(OC(=O)CCc3cccc(N)c3)cc2C1=O | inactive | – | –
COc1cc(N)ccc1CCC(=O)Oc1ccc2c(c1)C(=O)N(C)C2=O | – | 1800 | –
N#Cc1ccc(N2C(=O)c3ccc(OC(=O)CCc4ccc(N)nc4)cc3C2=O)cc1 | – | 78 | Ki [3]: 44 nM; Ki (Prothrombin): 16000 nM; Ki [4]: 880 nM; inhibition (Homo sapiens [5]): Active; inhibition (Homo sapiens [6]): Dose-dependent effect
COc1ccc(CCC(=O)Oc2ccc3c(c2)C(=O)N(C)C3=O)cc1 | inactive | – | –
CCCN1C(=O)c2ccc(OC(=O)CCc3ccc(N)cc3)cc2C1=O | – | 1200 | –
CN1C(=O)c2ccc(OC(=O)c3ccc(N)cc3)cc2C1=O | inactive | – | –

SMILES | inhibition (Homo sapiens [1]) | IC50 [2] [nM] | also measured
N#Cc1ccc(N2C(=O)c3ccc(OC(=O)CCc4ccc(N)cc4)cc3C2=O)cc1 | – | 340 | Ki [3]: 190 nM; Ki (Prothrombin): 8600 nM; Ki [4]: 4300 nM; inhibition (Homo sapiens [5]): Active
CN1C(=O)c2ccc(OC(=O)CCc3ccc(N(C)C)cc3)cc2C1=O | inactive | – | –
Nc1ccc(CCC(=O)Oc2ccc3c(c2)C(=O)N(c2ccc(N)cc2)C3=O)cc1 | – | 820 | –
Nc1ccc(CCC(=O)Oc2ccccc2)cc1 | inactive | – | –
CN1C(=O)c2ccc(OC(=O)CCCc3ccc(N)cc3)cc2C1=O | inactive | – | –
CCCCCCN1C(=O)c2ccc(OC(=O)CCc3ccc(N)cc3)cc2C1=O | – | 1500 | –
COc1ccc(N2C(=O)c3ccc(OC(=O)CCc4ccc(N)cc4)cc3C2=O)cc1 | – | 390 | –
COc1ccccc1N1C(=O)c2ccc(OC(=O)CCc3ccc(N)cc3)cc2C1=O | – | 1100 | –
CN1C(=O)c2ccc(OC(=O)CCc3ccccc3)cc2C1=O | inactive | – | –
CN1C(=O)c2ccc(OC(=O)CCc3ccc(N)cc3)cc2C1=O | 98% | 1500 | Ki [3]: 1700 nM; Ki (Prothrombin): 15000 nM; Ki [4]: 13000 nM
CN1C(=O)c2ccc(OC(=O)Cc3cccc(N)c3)cc2C1=O | 46% | – | –
CN1C(=O)c2ccc(OC(=O)CCc3ccncc3)cc2C1=O | – | > 30000 | –
Nc1ccc(CCC(=O)Oc2ccc3c(c2)C(=O)N(c2ccccc2)C3=O)cc1 | – | 1300 | –
Nc1ccc(CCC(=O)Oc2ccc3c(c2)C(=O)N(c2ccc(F)cc2)C3=O)cc1 | – | 1700 | –
CN1C(=O)c2ccc(OC(=O)Cc3ccc(N)cc3)cc2C1=O | inactive | – | –
COc1cc(CCC(=O)Oc2ccc3c(c2)C(=O)N(C)C3=O)ccc1N | – | > 30000 | –
